Test results as given in patent US10913922B2, “N-acylated methionine derivatives as food flavoring compounds” (Givaudan S.A., priority 2012, dated 2021).
“Also recorded” adds a separate entry of the source.

How the values were obtained:
[1] = Expert taster evaluation in a mango juice drink; conditions: 1 ppm in mango juice drink base (8% sucrose, 0.1% citric acid, 1% clear mango juice, mango flavour 0.05%); base alone: fruity mango
Experimental: (§1) Samples were evaluated by expert tasters. Tasters were asked to describe the samples focusing on authentic taste, mouthfeel, fullness, salty-ness, salivation, umami, sweetness, juiciness, richness, long lastingness and fattiness
Comparison in a Mango Juice Drink
Base is 8% sucrose, 0.1% citric acid, 1% clear mango juice, proprietary mango flavour @ 0.05%

[2] = Expert taster evaluation in lemon beverage; conditions: 1 ppm in lemon beverage (water, 7% sucrose, 0.15% citric acid, lemon flavor), base alone: floral, citral
Experimental: as §1
Basis water, 7% sucrose, 0.15% citric acid, proprietary lemon flavor

[3] = Expert taster evaluation in beef bouillon; conditions: base alone: salty, umami, powdery
Experimental: as §1
Comparison in Beef Bouillon
Base is Maggi beef bouillon 1 tablet in 500 ml of hot water

[4] = Expert taster evaluation in orange beverage; conditions: 1 ppm in orange beverage (water, 7% sugar, 0.1% citric acid, orange flavour 0.06%); base alone: orange, fruity, slightly candy
Experimental: as §1
Base is water, 7% sugar, 0.1% citric acid, proprietary orange flavour @ 0.06%

[5] = 1 ppm in Maggi beef bouillon (1 tablet in 500 ml hot water)

| SMILES | taste description by expert tasters [1] | taste description by expert tasters [2] | taste description by expert tasters [3, 5] | taste description by expert tasters ([3]; 25 ppb in Maggi beef bouillon) | taste description by expert tasters ([3]; 50 ppb in Maggi beef bouillon) | taste description by expert tasters [4] |
| --- | --- | --- | --- | --- | --- | --- |
| CCCCCCCC/C=C\CCCCCCCC(=O)NC(CCSC)C(=O)O (centres unmarked) [C18:1-met] | sweeter, juicy, salivating | fresh, less floral, very juicy, very authentic | very strong salty impact and aftertaste; also recorded: very strong salty impact and aftertaste, more fatty, mouthfeel, lingering full bodied | more peppery, more salty | more salty, more bouillon taste | very juicy fresh, authentic, juicy |
| CCCCCC/C=C\CCCC(=O)NC(CCSC)C(=O)O (centres unmarked) [C12:1-met] | ripe full, more juicy, slightly metallic | fresh, slightly more citral | more salty | – | – | nice orange, fresh |
| CCCCCCCCCCCCCCCC(=O)NC(CCSC)C(=O)O (centres unmarked) [C16:0-met] | fatty, full body, juicy, metallic | – | salty, full, nice salivating, lingering | – | – | slightly metallic, fresh |
| CCCCCCCC(=O)N[C@@H](CCSC)C(=O)O [C8:0-met] | green fresh, no additional body | – | more salty, no additional fullness | – | – | – |
| CCCCC/C=C\C/C=C\CCCCCCCC(=O)NC(CCSC)C(=O)O (centres unmarked) [C18:2-met] | fresh nice juicy | – | salivating salty, umami | – | – | – |
